Laboratory results reported in US6548494B1, “Tricyclic inhibitors of poly(ADP-ribose) polymerases” (Agouron Pharmaceuticals, Inc., priority 1999, dated 2003).
“And” between values parts separate entries of the source, which are not always exact repeats. Identical values can stand only once. Counter-ions that a name gives are not always drawn.

Target: purified PARP protein (Homo sapiens, UniProt P09874)
Assay: PARP enzyme inhibition assay
Assay type: biochemical
Details: 20 nM purified PARP (5 nM for tight-binding inhibitors), 500 μM NAD+, 25° C.; several values in one cell = repeat determinations; read-out: Inhibition Constant Ki

Sequence of purified PARP protein (P09874 whole entry): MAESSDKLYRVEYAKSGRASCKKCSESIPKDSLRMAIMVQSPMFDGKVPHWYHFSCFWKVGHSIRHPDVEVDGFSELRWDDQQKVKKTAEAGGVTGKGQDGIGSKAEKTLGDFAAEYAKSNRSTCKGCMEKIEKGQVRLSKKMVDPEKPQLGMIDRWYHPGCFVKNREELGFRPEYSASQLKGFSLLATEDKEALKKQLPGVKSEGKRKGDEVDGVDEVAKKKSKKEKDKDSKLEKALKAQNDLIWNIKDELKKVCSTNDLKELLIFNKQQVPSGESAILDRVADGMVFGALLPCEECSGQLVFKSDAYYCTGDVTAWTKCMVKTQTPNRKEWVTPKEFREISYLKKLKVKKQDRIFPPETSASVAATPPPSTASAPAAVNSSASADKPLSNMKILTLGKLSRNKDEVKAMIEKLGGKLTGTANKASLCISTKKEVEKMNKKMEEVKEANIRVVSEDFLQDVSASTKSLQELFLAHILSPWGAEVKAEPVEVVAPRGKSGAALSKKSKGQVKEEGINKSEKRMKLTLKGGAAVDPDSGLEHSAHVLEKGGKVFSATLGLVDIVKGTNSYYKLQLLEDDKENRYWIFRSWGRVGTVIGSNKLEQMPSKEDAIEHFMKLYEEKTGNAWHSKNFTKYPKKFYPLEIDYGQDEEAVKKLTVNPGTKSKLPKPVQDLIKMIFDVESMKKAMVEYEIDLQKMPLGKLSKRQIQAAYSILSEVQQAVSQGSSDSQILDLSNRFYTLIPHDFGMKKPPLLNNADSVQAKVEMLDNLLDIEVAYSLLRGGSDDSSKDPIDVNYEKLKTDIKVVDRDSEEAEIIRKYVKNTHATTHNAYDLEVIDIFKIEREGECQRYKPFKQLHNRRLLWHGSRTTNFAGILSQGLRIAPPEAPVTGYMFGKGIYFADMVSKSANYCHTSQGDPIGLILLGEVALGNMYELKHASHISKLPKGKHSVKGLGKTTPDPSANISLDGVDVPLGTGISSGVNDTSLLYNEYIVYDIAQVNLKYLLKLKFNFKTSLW

Compound	Ki
COc1ccc(C2CNC(=O)c3cccc4[nH]c(=O)n2c34)cc1 (racemic) [Example 53, (RS)-(±)-9-(4-Methoxy-phenyl)-8,9-dihydro-2H,7H-2,7,9a-triaza-benzo[cd]azulene-1,6-dione]	1800 nM
COc1ccc(C2CNC(=O)c3cccc4nc(-c5ccc(Cl)cc5)n2c34)cc1 (racemic) [Example 54, (RS)-(±)-1-(4-Chloro-phenyl)-9-(4-methoxy-phenyl)-8,9-dihydro-7H-2,7,9a-triaza-benzo[cd]azulen-6-one]	600 nM
O=C1NCCn2c(-c3ccco3)nc3cccc1c32 [Example 20, 1-Furan-2-yl-8,9-dihydro-7H-2,7,9a-triaza-benzo[cd]azulen-6-one]	11.9 nM
O=C1NCCn2c(Cc3ccccc3)nc3cccc1c32 [Example 21, 1-Benzyl-8,9-dihydro-7H-2,7,9a-triaza-benzo[cd]azulen-6-one]	13.7 nM and 13 nM
O=C1NCCn2c(C3CCCCC3)nc3cccc1c32 [Example 24, 1-Cyclohexyl-8,9-dihydro-7H-2,7,9a-triaza-benzo[cd]azulen-6-one]	29 nM
O=C1NCCn2c(S)nc3cccc1c32 [Example 28, 1-Mercapto-8,9-dihydro-7H-2,7,9a-triaza-benzo[cd]azulen-6-one]	10 nM
O=C1NCCn2c(-c3ccccc3)cc3cccc1c32 [Example 33, 6-Phenyl-3,4-dihydro-2H-[1,4]diazepino[6,7,1-hi]indol-1-one]	14.3 nM
O=Cc1c(-c2ccc(Cl)cc2)n2c3c(cccc13)C(=O)NCC2 [Example 38, 6-(4-Chloro-phenyl)-1-oxo-1,2,3,4-tetrahydro-[1,4]diazepino[6,7,1-hi]indole-7-carboxaldehyde]	43 nM
O=C1NCCN2CCc3cccc1c32 [Example 41, 3,4,6,7-Tetrahydro-2H-[1,4]diazepino[6,7,1-hi]indol-1-one, reference compound]	54 nM and 60 nM
COC(=O)c1cn2c3c(cccc13)C(=O)NCC2 [Example 44]	900 nM
O=Cc1cn2c3c(cccc13)C(=O)NCC2 [Example 45, 1-Oxo-1,2,3,4-tetrahydro-[1,4]diazepino[6,7,1-hi]indole-7-carbaldehyde]	167 nM and 185 nM
Cc1cn2c3c(cccc13)C(=O)NCC2 [Example 49, 7-Methyl-3,4-dihydro-2H-[1,4]diazepino[6,7,1-hi]indol-1-one]	122 nM
Cc1c(-c2cccc(C(F)(F)F)c2)n2c3c(cccc13)C(=O)NCC2 [Example 52, 6-(3-Trifluoromethyl-phenyl)-7-methyl-3,4-dihydro-2H-[1,4]diazepino[6,7,1-hi]indol-1-one]	79 nM
O=C1NCCn2c(-c3ccc(CO)cc3)nc3cccc1c32 [Example 58a, 1-(4-hydroxymethyl-phenyl)-8,9-dihydro-7H-2,7,9a-triaza-benzo[cd]azulen-6-one]	4.2 nM
O=C1NCCn2c(-c3ccc(-c4ccc(Cl)cc4)o3)nc3cccc1c32 [Example 96, 1-[5-(4-Chlorophenyl)-furan-2-yl]-8,9-dihydro-7H-2,7,9a-triaza-benzo[cd]azulen-6-one]	10 nM
CN(C)CCCOc1ccc(-c2nc3cccc4c3n2CCNC4=O)cc1 [Example 121, 1-[4-(3-Dimethylamino-propoxy)-phenyl]-8,9-dihydro-7H-2,7,9a-triaza-benzo[cd]azulen-6-one]	4 nM
C[N+](C)([O-])Cc1ccc(-c2nc3cccc4c3n2CCNC4=O)cc1 [Example 131]	22 nM
CC(C)(C)OC(=O)N1CCCC(c2ccc(-c3nc4cccc5c4n3CCNC5=O)cc2)C1 (stereo not drawn) [Example 143, 3-[4-(6-oxo-6,7,8,9-Tetrahydro-2,7,9a-triaza-benzo[cd]azulen-1-yl)-phenyl]-piperidine-1-carboxylic Acid t-Butyl Ester]	22 nM
Nc1nc2cccc3c2n1CCNC3=O [Example 146, 1-Amino-8,9-dihydro-7H-2,7,9a-triaza-benzo[cd]azulen-6-one Hydrochloride]	35 nM
O=C1NCCn2c(-c3ccc(C4CCCCN4CC4CC4)cc3)nc3cccc1c32 (stereo not drawn) [Example 150, 1-[4-(1-Cyclopropylmethyl-piperidin-2-yl)-phenyl]-8,9-dihydro-7H-2,7,9a-triaza-benzo[cd]azulen-6-one]	5 nM
N/N=C(\N)c1c(-c2ccc(F)cc2)n2c3c(cccc13)C(=O)NCC2 [Example 156, 7-Formyl-6-(4-fluorophenyl)-1-oxo-3,4-dihydro-[1,4]diazepino[6,7,1-hi]indole Amidrazone Hydrochloride]	57 nM

Compound	Ki
O=C1NCCn2c(-c3ccc(CN4CCC(O)C4)cc3)nc3cc(F)cc1c32 (stereo not drawn) [Example 172, 4-Fluoro-1-[4-(3-hydroxy-pyrrolidin-1-ylmethyl)-phenyl]-8,9-dihydro-7H-2,7,9a-triaza-benzo[cd]azulen-6-one]	4.6 nM
O=C1NCCn2c(-c3ccc(CN4CCC[C@@H]4CO)cc3)nc3cccc1c32 [Example 173, 1-[4-((2R)-2-Hydroxymethyl-pyrrolidin-1-ylmethyl)-phenyl]-8,9-dihydro-7H-2,7,9a-triaza-benzo[cd]azulen-6-one]	6.3 nM
O=C1NCCn2c(-c3ccc(CN4CCCC(CO)C4)cc3)nc3cccc1c32 (stereo not drawn) [Example 175, 1-[4-(3-Hydroxymethyl-piperidin-1-ylmethyl)-phenyl]-8,9-dihydro-7H-2,7,9a-triaza-benzo[cd]azulen-6-one]	6.6 nM
CN(Cc1ccc(-c2nc3cccc4c3n2CCNC4=O)cc1)CC(O)CO (stereo not drawn) [Example 176, 1-(4-{[(2,3-Dihydroxy-propyl)-methyl-amino]-methyl}-phenyl)-8,9-dihydro-7H-2,7,9a-triaza-benzo[cd]azulen-6-one]	9 nM
C=CCN1CCN(Cc2ccc(-c3nc4cccc5c4n3CCNC5=O)cc2)CC1 [Example 178, 1-[4-(4-Allyl-piperazin-1-ylmethyl)-phenyl]-2,7,8,9-tetrahydro-2,7,9a-triaza-benzo[cd]azulen-6-one]	12 nM
CN(CCc1ccccc1)Cc1ccc(-c2nc3cccc4c3n2CCNC4=O)cc1 [Example 179, 1-{4-[(Methyl-phenethyl-amino)-methyl]-phenyl}-2,7,8,9-tetrahydro-2,7,9a-triaza-benzo[cd]azulen-6-one]	5.6 nM
CCCCN(CCO)Cc1ccc(-c2nc3cccc4c3n2CCNC4=O)cc1 [Example 180, 1-(4-{[Butyl-(2-hydroxy-ethyl)-amino]-methyl}-phenyl)-2,7,8,9-tetrahydro-2,7,9a-triaza-benzo[cd]azulen-6-one]	7.4 nM
O=C1NCCn2c(-c3ccc(CN4CCC[C@H]4CO)cc3)nc3cccc1c32 [Example 181, 1-[4-((2S)-2-Hydroxymethyl-pyrrolidin-1-ylmethyl)-phenyl]-2,7,8,9-tetrahydro-2,7,9a-triaza-benzo[cd]azulen-6-one]	3.9 nM
O=C1NCCn2c(-c3ccc(CN4CC=CCC4)cc3)nc3cccc1c32 [Example 182, 1-[4-(3,6-Dihydro-2H-pyridin-1-ylmethyl)-phenyl]-2,7,8,9-tetrahydro-2,7,9a-triaza-benzo[cd]azulen-6-one]	4.7 nM
O=C1NCCn2c(-c3ccc(CNCCc4ccccc4)cc3)nc3cccc1c32 [Example 183, 1-[4-(Phenethylamino-methyl)-phenyl]-2,7,8,9-tetrahydro-2,7a-triaza-benzo[cd]azulen-6-one]	8 nM
O=C1NCCn2c(-c3ccc(CNCCc4ccc(F)cc4)cc3)nc3cccc1c32 [Example 185, 1-(4-{[2-(4-Fluoro-phenyl)-ethylamino]-methyl}-phenyl)-2,7,8,9-tetrahydro-2,7,9a-triaza-benzo[cd]azulen-6-one]	5.6 nM
CC(C)CN(C)Cc1ccc(-c2nc3cccc4c3n2CCNC4=O)cc1 [Example 187, 1-{4-[(Isobutyl-methyl-amino)-methyl]-phenyl}-8,9-dihydro-7H-2,7,9a-triaza-benzo[cd]azulen-6-one]	7 nM
O=C1NCCn2c(-c3ccc(CNC4CCC4)cc3)nc3cccc1c32 [Example 188, 1-(4-Cyclobutylaminomethyl-phenyl)-8,9-dihydro-7H-2,7,9a-triaza-benzo[cd]azulen-6-one]	4.8 nM
O=C1NCCn2c(-c3ccc(CNCc4cccs4)cc3)nc3cccc1c32 [Example 189, 1-(4-{[(Thiophen-2-ylmethyl)-amino]-methyl}-phenyl)-8,9-dihydro-7H-2,7,9a-triaza-benzo[cd]azulen-6-one]	5.1 nM
CCCN(CCC)Cc1ccc(-c2nc3cccc4c3n2CCNC4=O)cc1 [Example 190, 1-(4-Dipropylaminomethyl-phenyl)-8,9-dihydro-7H-2,7,9a-triaza-benzo[cd]azulen-6-one]	8.1 nM
O=C1NCCn2c(-c3ccc(CNCc4ccc5c(c4)OCO5)cc3)nc3cccc1c32 [Example 191, 1-(4-{[(Benzo[1,3]dioxol-5-ylmethyl)-amino]-methyl}-phenyl)-8,9-dihydro-7H-2,7,9a-triaza-benzo[cd]azulen-6-one]	4.3 nM
O=C1NCCn2c(-c3ccc(CNC4CCc5ccccc54)cc3)nc3cccc1c32 (stereo not drawn) [Example 192, 1-[4-(Indan-1-ylaminomethyl)-phenyl]-8,9-dihydro-7H-2,7,9a-triaza-benzo[cd]azulen-6-one]	4.5 nM
CCOC(=O)CCN(Cc1ccc(-c2nc3cccc4c3n2CCNC4=O)cc1)Cc1ccco1 [Example 193, 3-{[4-(6-oxo-6,7,8,9-Tetrahydro-2,7,9a-triaza-benzo[cd]azulen-1-yl)-benzyl]-furan-2-ylmethyl-amino}-propionic Acid Ethyl Ester]	11 nM
CN1CCCC1CCNCc1ccc(-c2nc3cccc4c3n2CCNC4=O)cc1 (stereo not drawn) [Example 194, 1-(4-{[2-(1-Methyl-pyrrolidin-2-yl)-ethylamino]-methyl}-phenyl)-8,9-dihydro-7H-2,7,9a-triaza-benzo[cd]azulen-6-one]	6.2 nM
Cc1ccc(CNCc2ccc(-c3nc4cccc5c4n3CCNC5=O)cc2)o1 [Example 195, 1-(4-{[(5-Methyl-furan-2-ylmethyl)-amino]-methyl}-phenyl)-8,9-dihydro-7H-2,7,9a-triaza-benzo[cd]azulen-6-one]	4.7 nM and 5.9 nM
O=C1NCCn2c(-c3ccc(CNCc4ccccc4)cc3)nc3cccc1c32 [Example 196, 1-[4-(Benzylamino-methyl)-phenyl]-8,9-dihydro-7H-2,7,9a-triaza-benzo[cd]azulen-6-one]	3.9 nM
